Source: article PMC10511816 (The Journal of Biological Chemistry, 2023)

Legend:
[1] = target: T1, Purine nucleoside phosphorylase (PNP) (Homo sapiens, UniProt P00491); set-up: method as in PMID 5653179, PMID 121041; conditions: cited from earlier work
T1 construct: purchased Sigma-Aldrich; host or cells: E. coli
T1 sequence (P00491 1-289): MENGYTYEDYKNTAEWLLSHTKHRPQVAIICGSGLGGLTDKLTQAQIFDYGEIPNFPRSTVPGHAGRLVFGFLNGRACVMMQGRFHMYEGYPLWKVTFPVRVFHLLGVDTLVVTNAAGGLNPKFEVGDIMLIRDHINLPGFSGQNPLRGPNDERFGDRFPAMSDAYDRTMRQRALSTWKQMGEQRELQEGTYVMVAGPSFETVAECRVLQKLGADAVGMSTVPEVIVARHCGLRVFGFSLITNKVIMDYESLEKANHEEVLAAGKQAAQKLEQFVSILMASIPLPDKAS

[2] = target: T2, XOR (Bos taurus, UniProt P80457); experiment: XOR kinetics with phenazine methosulfate / cytochrome c reduction (550 nm); format: biochemical, bovine; conditions: XOR, PMS
T2 construct: Bovine milk was obtained from the animal farm of the Nippon Veterinary and Life Science University; from tissue; host or cells: bovine milk
Procedure: Therefore, phenazine methosulfate was used to induce direct, rapid reoxidation of the molybdenum center ([22], [23]).
Bovine milk was obtained from the animal farm of the Nippon Veterinary and Life Science University. […] The dehydrogenase form of the enzyme (XDH) was obtained by reacting XO immediately upon purification with 5 mM DTT at pH 8.5, 25 °C for 1 h. XO and XDH assays were carried out at 25 °C under aerobic conditions. […] A total of 500 μM β-NAD^+ was added to the same reaction solution for XDH activity. Physiological conditions such as pH 7.4 (0.1 M potassium phosphate buffer (KPB), 0.2 mM EDTA) and the addition of 50 μM β-NADH were also used. […] In addition, the enzyme reaction solution was quenched with perchloric acid and neutralized with K2CO3, with products analyzed using HPLC as described below. Spectrophotometric data were analyzed using UV-Probe software Ver. 2.70 or LabSolutions UV-Vis Ver. […] Kinetic parameters were determined from nonlinear curve fits of raw data using GraphPad Prism 9 software.
A295 indicates the concentration of uric acid yielded by XOR. […] A295 indicates the concentration of uric acid yielded by XOR. Figure S2. The XOR inhibition mode of oxypurinol.A–G, Lineweaver-Burk plots were generated to visualize data and estimated the inhibition patterns. Data are representative of least two independent experiments. […] Figure S3. […] B, mode of inhibition of oxypurinol on the inosine degradation reaction of PNP. […] 0, 250, 375, 500, 750 and 1000 μM of oxypurinol were used. […] The rate of NAD^+ conversion to NADH was measured at A340 nm.

[3] = target: XOR; conditions: read-out: Ki for the conversion of xanthine to uric acid; cited from earlier work

T2 sequence (P80457 whole entry): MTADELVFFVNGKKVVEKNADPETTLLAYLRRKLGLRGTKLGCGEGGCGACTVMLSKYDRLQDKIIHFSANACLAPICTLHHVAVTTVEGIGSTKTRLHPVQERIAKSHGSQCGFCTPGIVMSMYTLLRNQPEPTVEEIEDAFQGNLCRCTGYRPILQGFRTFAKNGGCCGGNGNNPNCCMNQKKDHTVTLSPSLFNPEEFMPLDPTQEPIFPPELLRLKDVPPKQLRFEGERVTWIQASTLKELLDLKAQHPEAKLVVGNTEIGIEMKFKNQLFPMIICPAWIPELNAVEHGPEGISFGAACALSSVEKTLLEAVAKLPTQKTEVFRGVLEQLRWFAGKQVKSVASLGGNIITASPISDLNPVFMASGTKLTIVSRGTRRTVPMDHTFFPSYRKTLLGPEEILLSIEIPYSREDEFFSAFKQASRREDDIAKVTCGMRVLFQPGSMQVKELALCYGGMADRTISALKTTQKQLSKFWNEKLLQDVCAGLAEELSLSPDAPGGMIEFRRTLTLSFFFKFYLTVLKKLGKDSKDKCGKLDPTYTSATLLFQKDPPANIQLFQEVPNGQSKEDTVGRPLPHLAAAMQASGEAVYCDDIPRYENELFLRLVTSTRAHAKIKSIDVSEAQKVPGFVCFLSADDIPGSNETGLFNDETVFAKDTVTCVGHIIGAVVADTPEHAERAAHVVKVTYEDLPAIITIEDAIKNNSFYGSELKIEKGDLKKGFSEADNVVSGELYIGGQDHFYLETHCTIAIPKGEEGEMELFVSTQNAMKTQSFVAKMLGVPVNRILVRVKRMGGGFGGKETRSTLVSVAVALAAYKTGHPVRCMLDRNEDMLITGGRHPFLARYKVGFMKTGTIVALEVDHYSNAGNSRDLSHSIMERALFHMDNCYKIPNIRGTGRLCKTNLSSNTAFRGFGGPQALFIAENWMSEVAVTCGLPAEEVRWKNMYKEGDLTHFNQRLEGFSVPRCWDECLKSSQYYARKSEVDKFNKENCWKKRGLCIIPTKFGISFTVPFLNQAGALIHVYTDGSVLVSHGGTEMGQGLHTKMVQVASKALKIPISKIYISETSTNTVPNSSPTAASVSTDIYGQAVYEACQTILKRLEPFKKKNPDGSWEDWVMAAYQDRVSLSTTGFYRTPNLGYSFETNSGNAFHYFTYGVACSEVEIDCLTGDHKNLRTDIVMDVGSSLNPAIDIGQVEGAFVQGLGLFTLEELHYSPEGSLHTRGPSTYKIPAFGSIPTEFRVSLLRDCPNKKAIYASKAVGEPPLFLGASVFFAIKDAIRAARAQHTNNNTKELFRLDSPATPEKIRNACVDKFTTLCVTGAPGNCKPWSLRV

O=c1ncnc2n([C@H]3O[C@@H](CO)[C@H](O)[C@@H]3O)[nH]cc1-2 [ribosyl derivative]
Ki [1]: > 200 µM

Cc1nc(-c2ccc(OCC(C)C)c(C#N)c2)sc1C(=O)O [Febuxostat]
Types of inhibition ([2]; substrate hypoxanthine): Mixed
Types of inhibition ([2]; substrate xanthine): Mixed

COc1cc(-c2cnn3c(=O)nc[nH]c23)ccc1[S+]([O-])c1ccccc1 (stereo not shown) [BOF]
Ki [3]: < 0.01 µM
